The assay has as its system Ehrlich ascites tumor cells. In words: Concentration-dependent inhibition of growth of Ehrlich ascites tumor cells (antiproliferative action). It is filed as cell-based. From the text:
The novel alkylphosphonoserines have a strong cytostatic and virustatic action. In order to determine the cytostatic action, the antiproliferative action was investigated in Ehrlich ascites tumor cells. It can be seen here that the compounds according to the invention have excellent cytostatic action. They can therefore be employed as cytostatics or virustatics, alone or in a mixture with other active substances, in the form of customary pharmaceutical preparations.
Concentration-dependent Inhibition of Growth of Ehrlich Ascites Tumor Cells

`CCCCCCCCCCCCCCCCP(=O)(O)OC[C@H](N)C(=O)O` [n-Hexadecyl phosphono-L-serine, n-Hexadecylphosphono-L-serine]: the inhibition (usually the share of the control response that was lost under treatment) at 100 µM (Concentration 1 × 10^-4 M) was 89%. For the same molecule, under “Concentration 1 × 10^-5 M”, 10 µM produced 13% inhibition. Besides, testing at 30 µM (Concentration 3 × 10^-5 M) gave an inhibition of 45%. Testing at 3 µM (Concentration 3 × 10^-6 M) gave an inhibition of 9%.

Values taken from patent US5155099A, “Alkylphosphonoserines and pharmaceutical compositions useful as cytostatic agents” (Hafslund Nycomed Pharma Aktiengesellschaft, priority 1988, dated 1992).
